Experimental data reported in ChEMBL document CHEMBL1201862, “PubChem BioAssay data set” (2004).
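Tested at 5 concentrations; 48 h exposure; 96-well plates; endpoints linearly interpolated, else capped at highest concentration. Abbreviation: GI50, concentration required for 50% inhibition of growth.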 The source made the active and inactive calls. Rule as the data show it: active = GI50 up to about 1.1 µM and inactive = higher.

Assays:
Test in all cases: NCI tumour cell line growth inhibition, 48 h
786-0 = system: 786-0
PC-3 = system: PC-3
HL-60 = system: HL-60
NCI-H460 = system: NCI-H460
EKVX = system: EKVX
CAKI-1 = system: CAKI-1
OVCAR-3 = system: OVCAR-3
SK-OV-3 = system: SK-OV-3
SF-295 = system: SF-295
MOLT-4 = system: MOLT-4
HCT-116 = system: HCT-116
M14 = system: M14
HCC 2998 = system: HCC 2998
UO-31 = system: UO-31
DU-145 = system: DU-145
A549 = system: A549
RPMI-8226 = system: RPMI-8226
HOP-92 = system: HOP-92

Measured: GI50

C=C(C)C(=O)N1c2ccc(OC)cc2CC1C(=O)OCC (stereo not drawn)
inactive: 786-0 > 100 µM | PC-3 > 100 µM | HL-60 > 10 µM | NCI-H460 > 100 µM | EKVX > 100 µM | CAKI-1 > 100 µM | OVCAR-3 > 100 µM | SK-OV-3 > 100 µM | SF-295 > 100 µM | MOLT-4 > 100 µM | HCT-116 > 100 µM | M14 > 100 µM | HCC 2998 > 100 µM | UO-31 > 100 µM | DU-145 > 100 µM | A549 > 100 µM

O[C@@H]1C[C@H](Cl)c2c(Cl)sc(Cl)c21
inactive: 786-0 > 100 µM | PC-3 > 100 µM | NCI-H460 > 100 µM | RPMI-8226 > 100 µM | EKVX > 100 µM | CAKI-1 > 100 µM | OVCAR-3 > 100 µM | SK-OV-3 > 100 µM | SF-295 > 100 µM | MOLT-4 > 100 µM | HCT-116 > 100 µM | M14 > 100 µM | HCC 2998 > 100 µM | UO-31 > 100 µM | DU-145 > 100 µM | A549 > 100 µM

Cn1c(=O)cc(NCc2ccc(Cl)cc2)[nH]c1=O
inactive: 786-0 54 µM | PC-3 > 100 µM | NCI-H460 > 100 µM | RPMI-8226 > 100 µM | HOP-92 19.3 µM | EKVX > 100 µM | CAKI-1 > 100 µM | OVCAR-3 > 100 µM | SK-OV-3 > 100 µM | SF-295 30.3 µM | HCT-116 52.6 µM | M14 > 100 µM | HCC 2998 99.5 µM | UO-31 51.5 µM | A549 > 100 µM

CNC(=O)c1nc[nH]c1/N=N/N(C)N
inactive: 786-0 > 100 µM | PC-3 > 100 µM | NCI-H460 55 µM | RPMI-8226 > 100 µM | EKVX > 100 µM | CAKI-1 > 100 µM | OVCAR-3 > 100 µM | SK-OV-3 > 100 µM | SF-295 > 100 µM | MOLT-4 > 100 µM | HCT-116 > 100 µM | M14 > 100 µM | HCC 2998 > 100 µM | UO-31 > 100 µM | DU-145 > 100 µM | A549 > 100 µM

CCOC(=O)c1c(-c2ccc(OC)cc2)ccn1C
inactive: 786-0 > 10 µM | NCI-H460 > 10 µM | HOP-92 > 10 µM | EKVX > 10 µM | CAKI-1 > 10 µM | OVCAR-3 > 10 µM | SK-OV-3 > 10 µM | SF-295 > 10 µM | MOLT-4 > 10 µM | HCT-116 > 10 µM | M14 > 10 µM | HCC 2998 > 10 µM | UO-31 > 10 µM | DU-145 > 10 µM | A549 > 10 µM

O=[N+]([O-])c1ccc2nc(O)c(/C=C(\O)c3ccccc3)nc2c1
inactive: 786-0 4.78 µM | PC-3 28.8 µM | NCI-H460 3.83 µM | EKVX 49.4 µM | CAKI-1 21.4 µM | OVCAR-3 27.9 µM | SK-OV-3 12.3 µM | SF-295 18.8 µM | MOLT-4 > 100 µM | HCT-116 13.7 µM | M14 > 100 µM | HCC 2998 > 100 µM | UO-31 48.9 µM | DU-145 > 100 µM | A549 7.64 µM

COc1ccccc1N1CCN(CCCNC(=O)c2cc(Cl)c(N)c(Cl)c2)CC1
inactive: 786-0 33.3 µM | HL-60 15.5 µM | NCI-H460 23.3 µM | RPMI-8226 18.7 µM | HOP-92 4.36 µM | EKVX > 100 µM | SK-OV-3 69.8 µM | SF-295 16.3 µM | MOLT-4 19.8 µM | HCT-116 31 µM | M14 19.4 µM | HCC 2998 21.5 µM | UO-31 21.9 µM | DU-145 88.1 µM | A549 61.9 µM
